Measurements published in patent US7070983B2, “Mutant Pseudomonas putida strains and methods of use thereof” (priority 2003, dated 2006).

Key:
[1] = test system: P. putida strain no. 14 (Rif mutant); test: Tolerance test (MIC) on agar plates; format: cell-based, Pseudomonas putida
Procedure: (§1) Pseudomonas putida KH146-2 was originally isolated from soil for the capability of growing in the presence of 4-hydroxybenzoate (Chen et al., ((1998) Res Communs Biochem and Cell & Mol Biol 2: 253–274)). HBM medium consists of 50 mM sodium potassium phosphate buffer (pH6.8), 0.1% (NH4)2SO4 and Hutner's base. Hutner's base cotained (per liter) nitrilotriacetic acid, 200 mg; CaCl2.2H2O, 67 mg; (NH4)6Mo7O24.4H2O, 185 μg; MgSO4, 289 mg; EDTA, 2.5 mg; ZnSO4.7H2O, 11 mg; FeSO4.7H2O, 7 mg; MnSO4.H2O, 1.5 mg; CuSO4.5H2O, 390 μg; Co(NO3)2.6H2O, 250 μg, and Na2B4O7.10H2O, 180 μg. LB medium contains 1% tryptone, 0.5% yeast extract, and 1% NaCl (adjusted pH 6.8). LBH medium contains 1% tryptone and 0.5% yeast extract in HBM medium. The bacteria were grown at 30° C. in a shaker at 200 rpm. For tolerance tests, HBM or LBH agar plates containing serially increasing concentrations of an organic chemical were employed. Routinely, 20 to 40 bacterial strains were spot-transplanted with the aid of tooth pick on an agar plate, followed by incubation at 30° C. for 3 days.

[2] = test system: P. putida strain no. 18 (Rif mutant); test: Tolerance test (MIC) on agar plates; format: cell-based, Pseudomonas putida; conditions: LBH medium
Procedure: as §1

[3] = test system: P. putida strain no. 17 (Rif mutant); test: Tolerance test (MIC) on agar plates; format: cell-based, Pseudomonas putida
Procedure: as §1

[4] = test system: P. putida strain no. 12 (Gen mutant); test: Tolerance test (MIC) on agar plates; format: cell-based, Pseudomonas putida
Procedure: as §1

[5] = test system: P. putida strain no. 3 (Str mutant); test: Tolerance test (MIC) on agar plates; format: cell-based, Pseudomonas putida
Procedure: as §1

[6] = test system: P. putida strain no. 15 (Rif mutant); test: Tolerance test (MIC) on agar plates; format: cell-based, Pseudomonas putida
Procedure: as §1

[7] = test system: P. putida strain no. 9 (Str mutant); test: Tolerance test (MIC) on agar plates; format: cell-based, Pseudomonas putida
Procedure: as §1

[8] = test system: P. putida strain no. 20 (Rif mutant); test: Tolerance test (MIC) on agar plates; format: cell-based, Pseudomonas putida; conditions: LBH medium
Procedure: as §1

[9] = test system: Strain no. 55 (Str Gen double mutant); test: 4HBA tolerance after growth on LB without 4HBA; format: cell-based, Pseudomonas putida; conditions: strains grown once on LB medium without 4HBA
[10] = test system: Str mutant no. 3; conditions: read-out: apparent Km of 4HBA uptake, 50 to 500 μM 4HBA
Procedure: (§2) The method described by Thanassi et al. ((1995) J Bacteriol 177:998–1007) was used with some modifications. The bacteria were grown to mid-log phase in HBM medium containing 0.3% 4HBA, washed and resuspended in 0.3% succinate-HBM medium to give OD660=0.7. A 5 ml-aliquot of the bacterial suspension in a 100 ml flask was incubated in a shaker bath. A 0.5 μCi [carboxyl-^14C]4HBA (55 mCi mmol^−1, ARC.) with unlabelled 4HBA at increasing concentrations, were added to the 5 ml bacterial suspension and incubation was continued. At the indicated time, a 0.5 ml aliquot of sample was removed and filtered using a nitrocellulose filter (0.45 μm pore size, Millipore Corp, Bedford, Mass.) which had previously been washed with 2 ml of HBM medium containing 5 mM 4HBA. The sample was applied with a Pipetman, followed by immediate washing with 3 ml of 5 mM 4HBA-HBM medium. The membrane filter was dried, and transferred to a scintillation vial containing Brey's solution, and radioactivity was measured in scintillation spectrometer. From the rate of uptake and the concentration of 4HBA, apparent Km was determined by reciprocal plotting as described by Beman et al ((1983) J Bacteriol 156:1107–1117).
(§3) Therefore, we first grew cells to mid-log phase in HBM medium containing 0.3% 4HBA and succinate, washed, and resuspended in HBM medium containing only succinate. [^14C]4HBA was then added with unlabeled 4HBA at various (50 to 500 μM) concentrations.

[11] = test system: wild-type KH146-2; conditions: read-out: apparent Km of 4HBA uptake; wild-type strain; 50 to 500 μM 4HBA
Procedure: as §2, §3

[12] = test system: Rif mutant no. 17; conditions: read-out: apparent Km of 4HBA uptake, 50 to 500 μM 4HBA
Procedure: as §2, §3

[13] = test system: Str and Rif mutants; format: cell-based, Pseudomonas putida
Procedure: as §2
(§4) Therefore, we first grew cells to mid-log phase in HBM medium containing 0.3% 4HBA and succinate, washed, and resuspended in HBM medium containing only succinate. […]

[14] = test system: 4HBA-adapted mutants of wild-type strain KH146-2; test: 4HBA tolerance by sequential adaptation; format: cell-based, Pseudomonas putida; conditions: mutants obtained by step by step adaptation
Procedure: Wild-type strain KH146-2 was adapted, step by step, to grow in HBM medium containing increasing concentrations (from 0.8% to 5%) of 4HBA. In steps using high concentrations (>3%) of 4HBA, adaptation required a longer term incubation (7˜10 days) for each step. In certain steps, the 4HBA-adapted mutants were isolated using agar plates (containing the adapted concentrations of 4HBA), on which tolerant mutants formed big size colonies.

[15] = test system: P. putida wild-type KH146-2; format: cell-based, Pseudomonas putida; conditions: LBH medium, 30° C., 3 days
Procedure: as §1

[16] = test system: 4HBA-tolerant Str, Gen and Rif mutants of P. putida KH146-2; format: cell-based, Pseudomonas putida; conditions: the mutants; 4HBA as the sole carbon source
Procedure: as §1
Using several strains randomly chosen as representatives of 4HBA-tolerant mutants, we examined the tolerance level to various organic compounds. […] Tolerance levels to other organic compounds were also examined.

[17] = test system: wild-type and mutant strains; test: Determination of protein synthesis ([14C]leucine incorporation); format: cell-based, Pseudomonas putida; conditions: absence or presence (0.6 or 1.2%) of 4HBA; data not shown
[18] = test system: strain no. 3 harbouring a plasmid without rpsL; test: Complementation experiment, 4HBA-tolerance; format: cell-based, Pseudomonas putida
Source text: (§5) To clone the rpsL gene, a 0.9-kb DNA region covering whole rpsL was amplified from the chromosomal DNA of P. putida KH146-2 using KDO DNA polymerase (Toyobo Biochemicals, Osaka). Oligonucleotide primers were designed according to the rpoC-rpsL-rpsG sequence of P. putida KT2440 (www.tigr.org); 5′-[…]-3′ (SEQ ID NO:7—nucleotides [nt]−368 to −341 upstream of rpsL) and 5′-[…]-3′ (SEQ ID NO:8—complementary to nt 107 to 135 downstream of rpsL). The amplified DNA fragments were cloned into plasmid pUC118 (Vieira and Messing, (1987) Methods Enzymol 153: 3–11) to confirm the sequence, then excised from the plasmids as a BamHI-SphI fragment using the restriction sites in the multi-cloning sequence of the vector and inserted between the BglII and SphI sites of the E. coli-Pseudomonas shuttle vector pNIT6010 carrying tet^R, a derivative of pNIT6011 (Nishijyo et al. (2001) Mol Microbiol 40:917–931). The resultant plasmid pYI433, as well as vector control pNIT6010, was introduced into the Str mutant no. 3 (str-1) by conjugation using E. coli HB101/pRK2013 as the helper (Comai et al. (1983) Plasmid 10:21–30). Fifty μg ml^−1 of tetracycline was used for selection of transformants.
(§6) […]

[19] = test system: strain no. 3 carrying plasmid pYI433 containing the wild-type rpsL gene; test: Complementation experiment, 4HBA-tolerance; format: cell-based, Pseudomonas putida; conditions: strain no. 3 with plasmid containing the rpsL gene
Source text: as §5, §6

[20] = test system: Str Gen double mutant no. 55; test: Uptake of [14C]4HBA; format: cell-based, Pseudomonas putida; conditions: [14C]4HBA at 100 μM, FIG. 3
Procedure: as §2, §4

[21] = test system: P. putida strain no. 17 (rif-3); test: Resistance level to antibiotic on LB agar; format: cell-based, Pseudomonas putida; conditions: 1 days on LB agar
Source text: (§7) Spontaneous streptomycin-resistant (Str), gentamicin-resistant (Gen) or rifampicin-resistant (Rif) mutants were obtained from colonies that grew within 3 days after wild-type cells were spread on LB agar containing various concentrations of antibiotic.

[22] = test system: P. putida strain no. 22 (rif-3); test: Resistance level to antibiotic on LB agar; format: cell-based, Pseudomonas putida; conditions: 1 days on LB agar
Source text: as §7

[23] = test system: P. putida strain no. 21 (rif-3); test: Resistance level to antibiotic on LB agar; format: cell-based, Pseudomonas putida; conditions: 1 days on LB agar
Source text: as §7

[24] = test system: P. putida strain no. 23 (rif-4); test: Resistance level to antibiotic on LB agar; format: cell-based, Pseudomonas putida; conditions: 1 days on LB agar
Source text: as §7

[25] = test system: P. putida strain no. 19 (rif-5); test: Resistance level to antibiotic on LB agar; format: cell-based, Pseudomonas putida; conditions: 1 days on LB agar
Source text: as §7

[26] = test system: P. putida strain no. 18 (rif-4); test: Resistance level to antibiotic on LB agar; format: cell-based, Pseudomonas putida; conditions: 1 days on LB agar
Source text: as §7

[27] = test system: P. putida strain no. 20 (rif-5); test: Resistance level to antibiotic on LB agar; format: cell-based, Pseudomonas putida; conditions: 1 days on LB agar
Source text: as §7

[28] = test system: P. putida strain no. 24 (rif-4); test: Resistance level to antibiotic on LB agar; format: cell-based, Pseudomonas putida; conditions: 1 days on LB agar
Source text: as §7

[29] = test system: P. putida strain no. 15 (rif-2); test: Resistance level to antibiotic on LB agar; format: cell-based, Pseudomonas putida; conditions: 1 days on LB agar
Source text: as §7

[30] = test system: P. putida strain no. 14 (rif-1); test: Resistance level to antibiotic on LB agar; format: cell-based, Pseudomonas putida; conditions: 1 days on LB agar
Source text: as §7

[31] = test system: parental strain KH146-2; test: Antibiotic growth suppression on LB agar; format: cell-based, Pseudomonas putida
Source text: as §7
We first isolated a number of spontaneous streptomycin-resistant (Str), gentamicin-resistant (Gen) and rifampicin-resistant (Rif) mutants of P. putida KH146-2. These mutants appeared at a frequency of 10^−5–10^−6 when KH146-2 cells were spread on LB agar containing various amounts of antibiotics. […] Forty mutants resistant to each antibiotic were randomly selected and examined for tolerance to 4-hydroxybenzoic acid (4HBA). 4HBA-tolerant strains, which could grow in the presence of 1% 4HBA, were detected among these antibiotic resistant mutants at a high frequency of 3 to 15% (Table 1). The highest frequency (15%) was detected in the mutants selected with 1000 μg ml^−1 of streptomycin. These 4HBA-tolerant isolates all grew as well as the parent strain on LB agar.

[32] = test system: P. putida strain no. 12 (gen); test: Resistance level to antibiotic on LB agar; format: cell-based, Pseudomonas putida; conditions: 1 days on LB agar
Source text: as §7

[33] = test system: P. putida strain no. 13 (gen); test: Resistance level to antibiotic on LB agar; format: cell-based, Pseudomonas putida; conditions: 1 days on LB agar
Source text: as §7

[34] = test system: P. putida strain no. 11 (gen); test: Resistance level to antibiotic on LB agar; format: cell-based, Pseudomonas putida; conditions: 1 days on LB agar
Source text: as §7

[35] = HBM medium, 4HBA as a sole carbon source

O=C(O)c1ccc(O)cc1 [4HBA, 4-hydroxybenzoate]
Tolerance (MIC) [1, 35]: (1.4 ± 0.2) % | Tolerance (MIC) ([1]; LBH medium): 1.8 ± 0.2% | Tolerance (MIC) [2]: 2.0 ± 0.2% | Tolerance (MIC) [3, 35]: (1.3 ± 0.1) % | Tolerance (MIC) ([3]; LBH medium): 1.8 ± 0.2% | Tolerance (MIC) [4, 35]: (1.6 ± 0.2) % | Tolerance (MIC) ([4]; LBH medium): 1.9 ± 0.3% | Tolerance (MIC) [5, 35]: (1.7 ± 0.1) % | Tolerance (MIC) ([5]; LBH medium): 1.9 ± 0.1% | Tolerance (MIC) [6, 35]: (1.2 ± 0.2) % | Tolerance (MIC) ([6]; LBH medium): 1.8 ± 0.2% | Tolerance (MIC) [7, 35]: (1.3 ± 0.2) % | Tolerance (MIC) ([7]; LBH medium): 1.6 ± 0.2% | Tolerance (MIC) [8]: 1.9 ± 0.1% | Tolerance to 4HBA ([9]; 3% 4HBA): still showed a tolerance | Growth on 4HBA-containing medium ([9]; 5% 4HBA): no longer grew | Km [10]: 470 µM | Km [11]: 240 µM | Km [12]: 620 µM | Km values greater than wild-type ([13]; Str and Rif mutants vs wild-type): 2 to 3 fold | apparent uptake by the membrane transport system, reduction compared to wild-type ([13]; the mutants vs wild-type strain): 2 to 3 fold | 4HBA concentration tolerated [14]: up to 5% | Tolerance (MIC) [15]: 1.4 ± 0.1% | minimum inhibitory concentration (MIC) [16]: 1.7% | degree of suppression of protein synthesis, wild-type vs mutant strains [17]: no difference | 4HBA-tolerance [18]: 1.6% | 4HBA-tolerance [19]: 1% | uptake of 4HBA [20]: reduced uptake

CO[C@H]1/C=C/O[C@@]2(C)Oc3c(C)c(O)c4c(O)c(c(/C=N/N5CCN(C)CC5)c(O)c4c3C2=O)NC(=O)/C(C)=C\C=C\[C@H](C)[C@H](O)[C@@H](C)[C@@H](O)[C@@H](C)[C@H](OC(C)=O)[C@@H]1C [rifampicin]
Resistance level to antibiotic [21]: 500 (RIF) μg ml^−1 | Resistance level to antibiotic [22]: 500 (RIF) μg ml^−1 | Resistance level to antibiotic [23]: 500 (RIF) μg ml^−1 | Resistance level to antibiotic [24]: 500 (RIF) μg ml^−1 | Resistance level to antibiotic [25]: 500 (RIF) μg ml^−1 | Resistance level to antibiotic [26]: 500 (RIF) μg ml^−1 | Resistance level to antibiotic [27]: 500 (RIF) μg ml^−1 | Resistance level to antibiotic [28]: 500 (RIF) μg ml^−1 | Resistance level to antibiotic [29]: >500 (RIF) μg ml^−1 | Resistance level to antibiotic [30]: >500 (RIF) μg ml^−1 | Concentration completely suppressing growth [31]: 10 µg/mL

gentamicin
Resistance level to antibiotic [32]: 50 (GEN) μg ml^−1 | Resistance level to antibiotic [33]: 50 (GEN) μg ml^−1 | Resistance level to antibiotic [34]: 50 (GEN) μg ml^−1 | Concentration completely suppressing growth [31]: 12 µg/mL
